Results on twelve molecules are retold here after patent US11034654B2, “2,3-dihydroisoindole-1-carboxamides useful as ROR-gamma modulators” (AstraZeneca AB, priority 2017, dated 2021).

Experiment [1] relates to human TH17 cells. Description: Inhibition of IL-17 release from human TH17 cells. The experiment is classed as cell-based. To be noted: 96 h; isolated human TH17 cells cultured 4 days, IL-17A in supernatant by HTRF; read-out: pIC50 IL-17 release (converted). The source says:
Inhibition of IL-17 Release from Human TH17 Cells
This test is designed to screen compounds for their inhibitory effect on the release of IL-17 from isolated and cultured human TH17 cells.
Peripheral blood mononuclear cells (PBMC) were isolated from heparin treated human whole blood from healthy donors by density gradient centrifugation. TH17 cells (CD4+CXCR3−CCR6+) were enriched using a human TH17 Cell Enrichment Kit (Stemcell Technologies) according to the manufacturer's protocol. The isolated TH17 cells were activated with aCD3aCD28 beads (MACS Miltenyi) and cultured in X-Vivo15 medium (Lonza) supplemented with L-glutamine, β-mercaptoethanol and a cytokine cocktail consisting of; IL-2, IL-23, IL-1β, IL-6, TGF-β. Cells were seeded at 8000 cells/well in a 384-plate (Corning, #3707) in the presence of compounds or DMSO and cultured for 4 days (37° C., 5% CO2). On day 4 supernatants were collected and IL-17A was measured using a Human IL-17 HTRF Assay kit (Cisbio Bioassays) according to the manufacturer's protocol. The IC50 values for the tested compounds was calculated using Genedata Screener® software (Genedata) using the following calculation method; Compound % effect=100*[(X−min)/(max−min)], where X represents the normalized value for the compound based on the Min (DMSO) and Max (compound 3-(1,3-benzodioxol-5-yl)-1-(3,5-dimethylpiperidin-1-yl)-3-(2-hydroxy-4,6-dimethoxyphenyl)propan-1-one at 10 μM, described in J. R. Hu et al. ACS Med. Chem. Lett. 2013, 4, 79-84) inhibition controls. Results
A general note: In TR-FRET formats the signal depends on donor and acceptor labels being close together.

In experiment [2] the target is T1, RORγ ligand binding domain (Homo sapiens, UniProt P51449). Description: RORγ radioligand competition binding assay (SPA). The following applies: competition with tritiated 2-(4-(ethylsulfonyl)phenyl)-N-(4-(2-(methoxymethyl)phenyl)thiophen-2-yl)acetamide (25 nM), hRORγ LBD. The source says: RORγ Radioligand Competition Binding Assay The aim of this assay is to identify compounds which bind to the RORγ ligand binding domain, by competing with tritiated 2-(4-(ethylsulfonyl)phenyl)-N-(4-(2-(methoxymethyl)phenyl)thiophen-2-yl)acetamide. Human RORγ (Ligand Binding Domain (RORγ LBD) was expressed in E. coli (BL21DE3 Star) as a fusion protein: N-6×HN-Avi-GST-TCS-hRORγ LBD (S258-K518) subcloned into pET24a(+). The LBD (258-518) is underlined in the protein sequence: The scintillation proximity assay (SPA) was run in white polystyrene flat-bottom 384-well plates (Greiner, cat. No. 781075). Assays were carried out in 40 μl reaction volumes. Various concentrations of test ligands in 0.4 microlitres of DMSO were added to assay plates using an acoustic liquid dispenser. 4 nM purified N-(HN)6-GST-TCS-hRORγ (258-518) was mixed with 40 micrograms Yttrium oxide (YOx) glutathione SPA imaging beads in assay buffer (20 mM Tris, 150 mM NaCl, 10% Glycerol, 0.25% CHAPS, 1 mM TCEP) prior to adding 30 microlitres to test ligands. Assay plates were incubated for one hour at room temperature before adding 10 microlitres tritiated 2-(4-(ethylsulfonyl)phenyl)-N-(4-(2-(methoxymethyl)phenyl)thiophen-2-yl)acetamide to test plates in assay buffer (final concentration, 25 nM). Test plates were incubated for 16 hours and read using a LEADseeker Multimodality imaging instrument. The raw data was analysed and IC50 and Ki values for the compounds were calculated using Genedata Screener software. Raw data was transformed to % effect using equation 1: Compound % effect=100*[(X−min)/(max−min)], where X represents the normalized value for the compound based on the Min (vehicle) and Max (reference compound) inhibition controls. The concentration of test ligand that inhibited radioligand binding by 50% (i.e., the IC50) was calculated by plotting the % effect versus test ligand concentration and fitting the data using the Genedata Screener Smart fit algorithm. Ki is calculated from the IC50 value using the equation Ki=IC50/1+[L]/Kd) where [L]=25 nmol/L and Kd=17 nmol/L
A general note: Loss of bound radioactivity is the signal in a displacement assay; it reports binding, not function.

In experiment [3] the target is T1, RORγ ligand binding domain. Description: RORγ co-factor recruitment assay (FRET). In kind it is biochemical. Set-up: made in house; host or cells: E. coli BL21DE3 Star. The following applies: inhibition of recruitment of SRC-1 peptide (NCOA1_677-700) to hRORγ LBD, HTRF read-out. The source says: RORγ Co-Factor Recruitment Assay A high throughput coactivator binding assay for the identification of inverse agonists of the recruitment of peptide SRC-1 (NCOA1_677-_700) to the RORγ ligand binding domain was established. The ligand binding domain (LBD) of human RORγ was expressed in E. coli (BL21DE3 Star) as a fusion protein: N-6×HN-MBP-Avi-TCS-hRORγLBD(P260-K518) subcloned into pET24a(+). The LBD (P260-K518) is underlined in the protein sequence: The assay was run in black 384 well plates (Greiner cat no: 784900). Various concentrations of test ligands in 0.1 microlitres DMSO were dispensed to assay plates using an Echo acoustic dispenser. Two pre-mixes were prepared and incubated for 1 h at room temp in the dark. Pre-mix 1 comprised 100 nM Protein (Biotinylated HN-Avi-MBP-TCS-hRORγ (258-518)) and 60 nM Streptavidin APC in assay buffer, 50 mM MOPS pH7.4, 50 mM KF, 0.003% (w/v) CHAPS, 10 mM DTT and 0.01% (w/v) BSA and pre-mix 2 comprised 160 nM biotinylated SRC-1 peptide (NCOA1-677-700) and 20 nM Europium-W8044 labelled Streptavidin in assay buffer. Five microlitres of pre-mix 2 was dispensed to assay plates containing 0.1 microlitres of test compound and was incubated for 15 min prior to adding five microlitres of pre-mix 1. Plates were incubated at rt for 1 hour in the dark, prior to reading in a Pherastar multi-mode plate reader using HTRF filter set (ex 320, em 612 and 665). The FRET signal at 665 nm was divided by the signal at 612 nm and multiplied by 10,000 to generate a signal ratio value for each well. The raw data was transformed to % effect using the equation: Compound % effect=100*[(X−min)/(max−min)], where X represents the normalized value for the compound based on the Min (vehicle) and Max (reference compound) inhibition control. The concentration of test ligand that inhibited the activity by 50% (i.e., the IC50) was calculated by plotting the % effect versus test ligand concentration and fitting the data using the Genedata Screener Smart fit algorithm.

Consider `CCS(=O)(=O)c1ccc2c(c1)CN(C(C)=O)C2C(=O)Nc1ccc(C(C#N)(C(F)(F)F)C(F)(F)F)cc1` (stereo not drawn) [Example 14, 2-Acetyl-N-[4-(2-cyano-1,1,1,3,3,3-hexafluoropropan-2-yl)phenyl]-5-(ethylsulfonyl)-2,3-dihydro-1H-isoindole-1-carboxamide], for which the IC50 in experiment [1] is 2.51 nM; in experiment [2] it was 5.01 nM; in experiment [3], 39.8 nM.
For `CC(=O)N1Cc2cc(S(C)(=O)=O)ccc2C1C(=O)Nc1ccc(C(C#N)(C(F)(F)F)C(F)(F)F)cc1` (stereo not drawn) [Example 2, 2-Acetyl-N-[4-(2-cyano-1,1,1,3,3,3-hexafluoropropan-2-yl)phenyl]-5-(methylsulfonyl)-2,3-dihydro-1H-isoindole-1-carboxamide] the same measures were 10 nM, 15.8 nM and 126 nM.
On to `COC1(C(=O)N2Cc3cc(S(C)(=O)=O)ccc3C2C(=O)Nc2ccc(C(C#N)(C(F)(F)F)C(F)(F)F)cc2)CC1` (stereo not drawn) [Example 3, N-[4-(2-Cyano-1,1,1,3,3,3-hexafluoropropan-2-yl)phenyl]-2-[(1-methoxycyclopropyl)carbonyl]-5-(methylsulfonyl)-2,3-dihydro-1H-isoindole-1-carboxamide], for which the IC50 in experiment [1] was 15.8 nM; in experiment [2], 20 nM; in experiment [3], 251 nM.
For `CC(=O)N1Cc2cc(S(C)(=O)=O)ccc2C1C(=O)Nc1ccc(C(NCCO)(C(F)(F)F)C(F)(F)F)cc1` (stereo not drawn) [Example 21, 2-Acetyl-N-(4-{1,1,1,3,3,3-hexafluoro-2-[(2-hydroxyethyl)amino]propan-2-yl}phenyl)-5-(methylsulfonyl)-2,3-dihydro-1H-isoindole-1-carboxamide], the IC50 is 100 nM in experiment [1], 316 nM in experiment [2] and 126 nM in experiment [3].
For `CC(=O)N1Cc2cc(S(=O)(=O)CC3CC3)ccc2C1C(=O)Nc1ccc(C(C#N)(C(F)(F)F)C(F)(F)F)cc1` (stereo not drawn) [Example 13, 2-Acetyl-N-[4-(2-cyano-1,1,1,3,3,3-hexafluoropropan-2-yl)phenyl]-5-[(cyclopropylmethyl)sulfonyl]-2,3-dihydro-1H-isoindole-1-carboxamide] the same measures were 5.01 nM, 6.31 nM and 63.1 nM.
As to `COCCNC(c1ccc(NC(=O)C2c3ccc(S(C)(=O)=O)cc3CN2C(C)=O)cc1)(C(F)(F)F)C(F)(F)F` (stereo not drawn) [Example 17, 2-Acetyl-N-(4-{1,1,1,3,3,3-hexafluoro-2-[(2-methoxyethyl)amino]propan-2-yl}phenyl)-5-(methylsulfonyl)-2,3-dihydro-1H-isoindole-1-carboxamide], the IC50 was 20 nM in experiment [1], 31.6 nM in experiment [2] and 100 nM in experiment [3].
For `COC(=O)CC(c1ccc(NC(=O)C2NCc3cc(S(C)(=O)=O)ccc32)cc1)(C(F)(F)F)C(F)(F)F` (stereo not drawn) [Example 31, Methyl 4,4,4-trifluoro-3-[4-[(5-methylsulfonylisoindoline-1-carbonyl)amino]phenyl]-3-(trifluoromethyl)butanoate] the same measures were 200 nM, 794 nM and 200 nM.
The like results for `CC(=O)N1Cc2cc(S(C)(=O)=O)ccc2C1C(=O)Nc1ccc(C(CCO)(C(F)(F)F)C(F)(F)F)cc1` (stereo not drawn) [Example 33, 2-Acetyl-5-(methylsulfonyl)-N-{4-[1,1,1-trifluoro-4-hydroxy-2-(trifluoromethyl)butan-2-yl]phenyl}-2,3-dihydro-1H-isoindole-1-carboxamide] were, in that order, 200 nM, 251 nM and 158 nM.
`CC(=O)N1Cc2cc(S(C)(=O)=O)ccc2C1C(=O)Nc1ccc(C(N2CCCC2)(C(F)(F)F)C(F)(F)F)cc1` (stereo not drawn) [Example 15, 2-Acetyl-N-{4-[1,1,1,3,3,3-hexafluoro-2-(pyrrolidin-1-yl)propan-2-yl]phenyl}-5-(methylsulfonyl)-2,3-dihydro-1H-isoindole-1-carboxamide]: the IC50 in experiment [1] was 3.98 nM; in experiment [2], 5.01 nM; in experiment [3], 39.8 nM.
For `CC(=O)NCCC(c1ccc(NC(=O)C2c3ccc(S(C)(=O)=O)cc3CN2C(C)=O)cc1)(C(F)(F)F)C(F)(F)F` (stereo not drawn) [Example 45, 2-Acetyl-N-{4-[4-(acetylamino)-1,1,1-trifluoro-2-(trifluoromethyl)butan-2-yl]phenyl}-5-(methylsulfonyl)-2,3-dihydro-1H-isoindole-1-carboxamide] the same measures were 3160 nM, 794 nM and 200 nM.
For `CC(=O)N1Cc2cc(S(C)(=O)=O)ccc2C1C(=O)Nc1ccc(C(CCF)(C(F)(F)F)C(F)(F)F)cc1` (stereo not drawn) [Example 35, 2-Acetyl-5-(methylsulfonyl)-N-{4-[1,1,1,4-tetrafluoro-2-(trifluoromethyl)butan-2-yl]phenyl}-2,3-dihydro-1H-isoindole-1-carboxamide] the same measures were 6.31 nM, 10 nM and 39.8 nM.
For `CC(=O)N1Cc2cc(S(C)(=O)=O)ccc2C1C(=O)Nc1ccc(C(NC2CCOCC2)(C(F)(F)F)C(F)(F)F)cc1` (stereo not drawn) [Example 20, 2-Acetyl-N-{4-[1,1,1,3,3,3-hexafluoro-2-(tetrahydro-2H-pyran-4-ylamino)propan-2-yl]phenyl}-5-(methylsulfonyl)-2,3-dihydro-1H-isoindole-1-carboxamide] the same measures were 50.1 nM, 100 nM and 100 nM.
